These results are taken from patent publication US20220370453A1 (Storm Therapeutics Ltd, priority 2019, published 2022).

Test [1] addresses T1, BCDIN3D (Homo sapiens, UniProt Q7Z5W3).
T1 sequence (Q7Z5W3 1-292): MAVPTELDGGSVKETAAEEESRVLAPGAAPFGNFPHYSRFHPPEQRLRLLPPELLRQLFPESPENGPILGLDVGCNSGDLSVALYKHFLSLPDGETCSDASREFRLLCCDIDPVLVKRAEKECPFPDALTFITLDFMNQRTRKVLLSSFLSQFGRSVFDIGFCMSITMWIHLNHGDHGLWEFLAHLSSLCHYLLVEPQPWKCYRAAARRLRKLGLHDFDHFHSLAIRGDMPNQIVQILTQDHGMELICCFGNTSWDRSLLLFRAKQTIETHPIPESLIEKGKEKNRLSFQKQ
The experiment in a line: BCDIN3D IC50 RFMS (RapidFire) assay with mini-helix. The test is classed as biochemical. To be noted: mini-helix substrate 0.2 μM, SAM 6 μM, 25 nM enzyme. Summed up:
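SAH formation was measured by RapidFire mass spectrometry with D4- and 13C10-SAH internal standards after TCA quench. Substrates 6 μM SAM and 0.2 μM mini-helix reacted 1 h at 37 °C with 25 nM enzyme, which had been preincubated 10 min with compound (1% DMSO) in Tris pH 8.0 buffer with DTT, EDTA, BSA.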

In test [2] the target is T1, BCDIN3D. The test can be described thus: BCDIN3D InCellPulse thermal stability assay in transfected A549 cells. It counts as cell-based. To be noted: transiently transfected A549 cells, heat shock 58° C. 15 min. As to the method:
BCDIN3D InCellPulse™ Assay
The thermal stability assay was performed with lipofectamine 3000 transiently transfected A549 using the plasmid pICP-ePL-BCDIN3 Da. This plasmid encodes for BCDIN3D N-terminally fused to a Prolabel (ePL), complementing a split β-Galactosidase Enzyme System InCELL Pulse Technology (InCELL Hunter Detection Kit, DiscoverX/Eurofins, cat: 96-0079L). 20 μl A549 cells (1500 cell/well) were added with a multidrop device to compounds to a final DMSO concentration of 0.6% in 384-well polypropylene plate format in IMDM medium and pre-incubated with the compounds for 1 h at 37° C. and 5% CO2. Subsequently, a heat shock was applied to the entire sealed plate in a 58° C. water bath for 15 min. The plates were cooled to RT, spun down and 25 μl/well of EA Detection Solution at 3.3× (InCELL Hunter Detection Kit) was added per well. 21 μl of the mixture was added to a black 384-well measurement plate (Corning, PS, black, Flat Bottom, #3575), mix for 30 minutes on a plate shaker at RT. Finally, the luminescence was measured with a Perkin Elmer EnVision with 0.2 s measurement time in luminescence mode.

Consider `Cn1ncc2c(NCc3ccc(C(F)(F)F)nc3)nc(NCC3(N)CC3)nc21` [Compound 2.19, 6-N-[(1-aminocyclopropyl)methyl]-1-methyl-4-N-[[6-(trifluoromethyl)pyridin-3-yl]methyl]pyrazolo[3,4-d]pyrimidine-4,6-diamine], for which the figures for the IC50 in test [1] and in test [2] were 7120 nM and 11700 nM, respectively.
The matching figures for `Cn1ncc2c(Nc3cc(F)c(Cl)c(F)c3)nc(NCC3(N)CC3)nc21` [Compound 2.20, 6-N-[(1-aminocyclopropyl)methyl]-4-N-(4-chloro-3,5-difluorophenyl)-1-methylpyrazolo[3,4-d]pyrimidine-4,6-diamine]: 179 nM and 887 nM.
With `Cn1ncc2c(Nc3cccc(OC(F)F)c3)nc(NCC3(N)CC3)nc21` [Compound 2.21, 6-N-[(1-aminocyclopropyl)methyl]-4-N-[3-(difluoromethoxy)phenyl]-1-methylpyrazolo[3,4-d]pyrimidine-4,6-diamine], the 50% inhibitory concentration (IC50) (usually the point on the concentration scale where inhibition reaches its midpoint) came to 514 nM in test [1] and 2470 nM in test [2].
With `CC(C)Oc1ccc(Nc2nc(NCC3(N)CC3)nc3c2cnn3C)cc1` [Compound 2.22, 6-N-[(1-aminocyclopropyl)methyl]-1-methyl-4-N-(4-propan-2-yloxyphenyl)pyrazolo[3,4-d]pyrimidine-4,6-diamine], the half-inhibitory concentration (IC50) came out at 332 nM in test [1] and 1500 nM in test [2].
As to `Cn1ncc2c(Nc3ccc(Cl)c(F)c3)nc(NCC3(N)CC3)nc21` [Compound 2.23], the IC50 came out at 59.1 nM in test [1] and 473 nM in test [2].
On to `Cn1ncc2c(Nc3cccc(F)c3F)nc(NCC3(N)CC3)nc21` [Compound 2.24, 6-N-[(1-aminocyclopropyl)methyl]-4-N-(2,3-difluorophenyl)-1-methylpyrazolo[3,4-d]pyrimidine-4,6-diamine], for which the IC50 in test [1] was found to be 2460 nM; in test [2], 3500 nM.
As to `Cn1ncc2c(Nc3cc(F)ccc3F)nc(NCC3(N)CC3)nc21` [Compound 2.25, 6-N-[(1-aminocyclopropyl)methyl]-4-N-(2,5-difluorophenyl)-1-methylpyrazolo[3,4-d]pyrimidine-4,6-diamine], the IC50 in test [1] stood at 1540 nM; in test [2] it was 3520 nM.
In the case of `Cn1ncc2c(NCc3ccc(F)cc3F)nc(NCC3(N)CC3)nc21` [Compound 2.26], the IC50 in test [1] is 1000 nM; in test [2] it was 4650 nM.
For `Cn1ncc2c(Nc3ccc(F)c(Cl)c3)nc(NCC3(N)CC3)nc21` [Compound 2.27, 6-N-[(1-aminocyclopropyl)methyl]-4-N-(3-chloro-4-fluorophenyl)-1-methylpyrazolo[3,4-d]pyrimidine-4,6-diamine] the same measures were 262 nM and 1810 nM.
Turning to `Cn1ncc2c(Nc3ccc(Cl)cc3)nc(NCC3(N)CC3)nc21` [Compound 2.28, 6-N-[(1-aminocyclopropyl)methyl]-4-N-(4-chlorophenyl)-1-methylpyrazolo[3,4-d]pyrimidine-4,6-diamine], the results for the IC50 in test [1] and in test [2] were 57.4 nM and 1070 nM, respectively.
For `Cn1ncc2c(Nc3cccc(F)c3)nc(NCC3(N)CC3)nc21` [Compound 2.29, 6-N-[(1-aminocyclopropyl)methyl]-4-N-(3-fluorophenyl)-1-methylpyrazolo[3,4-d]pyrimidine-4,6-diamine], the results for the half-maximal inhibitory concentration (IC50) in test [1] and in test [2] were 444 nM and 3000 nM, respectively.
`Cc1nn(C)c2nc(NCC3(N)CC3)nc(Nc3ccc(C(F)(F)F)cc3)c12` [Compound 2.30, 6-N-[(1-aminocyclopropyl)methyl]-1,3-dimethyl-4-N-[4-(trifluoromethyl)phenyl]pyrazolo[3,4-d]pyrimidine-4,6-diamine]: the IC50 is 545 nM in test [1] and 1780 nM in test [2].
As for `Cn1ncc2c(Nc3ccc(C#N)cc3)nc(NCC3(N)CC3)nc21` [Compound 2.31, 4-[[6-[(1-aminocyclopropyl)methylamino]-1-methylpyrazolo[3,4-d]pyrimidin-4-yl]amino]benzonitrile], the IC50 amounted to 976 nM in test [1] and 8240 nM in test [2].
